Data reported in patent US20130017570A1, “METHOD FOR MONITORING STATE OF DIFFERENTIATION IN STEM CELL” (OLYMPUS CORPORATION, priority 2010, published 2013).

System: Nanog gene expression in mouse ES cells constitutively expressing Nanog-Eluc
Test: Luminescence imaging of Nanog-Eluc expression in ES cell colonies under FGF stimulus and FGF signal inhibitors
Type: cell-based
Conditions: FGF 10 ng/ml, medium without LIF, before inhibitor addition
From the text: Mouse ES cells used in Example 1-2 were used, which is constitutively expressing Nanog-Eluc. The cells were differentiation-induced with FGF (Fibroblast Growth Factor), and then observed under condition with signal transduction inhibitor. FGF signal is a signal transduction which induces stem cell differentiation, and it has been reported that the stem cell returns from the differentiated state to the undifferentiated state by the action of an inhibitor (T. Kunath et al., Development 134, pp. 2895-2902, 2007). The preparation method of ES cells is in the same manner as in Example 1-2. […]
D-luciferin (manufactured by Promega KK: final concentration of 500 μM) was added for luminescence observation, FGF (FGFβ human, PeproTech Inc.) was added so as to have a final concentration of 10 ng/ml, and then the mouse ES cells were observed using a luminescence microscope LV200 (manufactured by Olympus Corporation). As the luminescence observation conditions, the luminescence images of the mouse ES cells were taken under 55 min exposure at 1 hour intervals, thereby observing Nanog gene expression level. […]
After the time-lapse observation, the captured images were saved, and numerical data was analyzed from the observation images using an image analysis software “AQUACOSMOS (manufactured by Hamamatsu Photonics K.K.)”, and the analyzed numerical data was shown as graph data. […]

“FGF: Fibroblast Growth Factor (FGFβ human, PeproTech Inc.) used for differentiation induction” was tested, and the “Nanog expression (luminescence intensity) when adding FGF, expression pattern C colonies” value was “not seen”.
